Data: US11541028B2, “Peptide pharmaceuticals for treatment of NASH and other disorders” (Mederis Diabetes LLC, priority 2018, dated 2023)
Like-named read-outs stand apart in the source and are kept apart here. Bridge positions count the residues as written; N and C are the ends. Square brackets hold non-standard residues; d marks the D form. Peptide text beside a SMILES is read from it. * marks the point of attachment. Melibiouronoyl(1β-O-dodecyl) = CCCCCCCCCCCCO[C@@H]1O[C@H](CO[C@H]2O[C@H](C(=O)*)[C@H](O)[C@H](O)[C@H]2O)[C@@H](O)[C@H](O)[C@H]1O; X1 = CCCCCCCCCCCCCCCCO[C@@H]1O[C@H](CO[C@H]2O[C@H](C(=O)*)[C@H](O)[C@H](O)[C@H]2O)[C@@H](O)[C@H](O)[C@H]1O; Aib = CC(C)(N)C(=O)O

How the values were obtained:
human GLP-1 receptor = molecular target: T1, human GLP-1 receptor (Homo sapiens, UniProt P43220); experiment: DiscoveRx LeadHunter cellular assay, cAMP stimulation, GLP-1 receptor in CHO cells; format: cell-based; settings: human GLP-1 receptor in CHO cells (DiscoveRx); read-out: EC50 cAMP GLP-1 R
T1 construct: host or cells: CHO cells

human glucagon receptor = molecular target: T2, human glucagon receptor (Homo sapiens, UniProt P47871); experiment: DiscoveRx LeadHunter cellular assay, cAMP stimulation, glucagon receptor in CHO cells; format: cell-based
T2 construct: host or cells: CHO cells

[1] = read-out: EC50 cAMP Glucagon R, human glucagon receptor in CHO cells (DiscoveRx)

T1 sequence (P43220 24-463): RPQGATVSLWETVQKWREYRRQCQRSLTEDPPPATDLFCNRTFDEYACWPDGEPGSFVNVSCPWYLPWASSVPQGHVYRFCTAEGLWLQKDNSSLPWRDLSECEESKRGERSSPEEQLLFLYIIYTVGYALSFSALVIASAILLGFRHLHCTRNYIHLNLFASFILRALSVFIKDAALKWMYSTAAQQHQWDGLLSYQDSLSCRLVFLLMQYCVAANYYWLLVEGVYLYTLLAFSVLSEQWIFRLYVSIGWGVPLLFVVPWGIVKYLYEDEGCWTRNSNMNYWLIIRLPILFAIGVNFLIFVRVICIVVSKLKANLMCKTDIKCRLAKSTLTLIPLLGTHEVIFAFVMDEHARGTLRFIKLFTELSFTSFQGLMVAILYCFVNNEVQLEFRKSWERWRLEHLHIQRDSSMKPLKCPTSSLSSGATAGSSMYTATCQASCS
T2 sequence (P47871 26-477): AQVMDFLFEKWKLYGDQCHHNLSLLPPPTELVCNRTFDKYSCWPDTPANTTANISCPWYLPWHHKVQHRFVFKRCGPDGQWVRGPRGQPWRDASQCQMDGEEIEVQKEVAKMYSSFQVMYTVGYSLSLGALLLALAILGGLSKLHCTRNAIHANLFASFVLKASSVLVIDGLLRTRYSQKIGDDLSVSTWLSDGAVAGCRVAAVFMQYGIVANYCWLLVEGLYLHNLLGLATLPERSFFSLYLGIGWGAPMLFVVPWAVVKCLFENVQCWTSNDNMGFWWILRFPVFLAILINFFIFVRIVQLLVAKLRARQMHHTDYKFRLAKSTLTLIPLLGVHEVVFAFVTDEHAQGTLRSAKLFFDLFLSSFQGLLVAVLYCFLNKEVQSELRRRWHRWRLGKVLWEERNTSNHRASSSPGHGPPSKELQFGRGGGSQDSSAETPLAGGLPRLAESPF

Structure (SMILES) | EC50 (human GLP-1 receptor) [pM] | EC50 (human glucagon receptor; [1]) [pM] | EC50 (human glucagon receptor) [pM]
CCCCCCCCCCCCCCO[C@@H]1O[C@H](C(=O)N[C@@H](CCC(=O)NCCCC[C@H](NC(=O)[C@@H](NC(=O)[C@H](Cc2ccccc2)NC(=O)[C@H](CCC(=O)O)NC(=O)[C@@H]2CCCCNC(=O)CC[C@H](NC(=O)[C@H](CC(=O)O)NC(=O)[C@H](CC(C)C)NC(=O)[C@H](Cc3ccc(O)cc3)NC(=O)[C@H](CCCCN)NC(=O)[C@H](CO)NC(=O)[C@H](Cc3ccc(O)cc3)NC(=O)[C@H](CC(=O)O)NC(=O)[C@H](CO)NC(=O)[C@@H](NC(=O)[C@H](Cc3ccccc3)NC(=O)[C@@H](NC(=O)CNC(=O)[C@H](CCC(N)=O)NC(=O)C(C)(C)NC(=O)[C@@H](N)Cc3c[nH]cn3)[C@@H](C)O)[C@@H](C)O)C(=O)N[C@@H](CCC(N)=O)C(=O)N[C@@H](C)C(=O)N[C@@H](C)C(=O)N2)[C@@H](C)CC)C(=O)N[C@@H](Cc2c[nH]c3ccccc23)C(=O)N[C@@H](CC(C)C)C(=O)N[C@@H](CC(C)C)C(=O)N[C@@H](CCC(N)=O)C(=O)N[C@H](C(N)=O)[C@@H](C)O)C(=O)O)[C@@H](O)[C@H](O)[C@H]1O [EU-A1718] | 43 | 97 | 
CCCCCCCCCCCCCCO[C@@H]1O[C@H](C(=O)NCCCC[C@H](N)C(=O)NCCCC[C@H](NC(=O)[C@@H](NC(=O)[C@H](Cc2ccccc2)NC(=O)[C@H](CCC(=O)O)NC(=O)[C@@H]2CCCCNC(=O)CC[C@H](NC(=O)[C@H](CC(=O)O)NC(=O)[C@H](CC(C)C)NC(=O)[C@H](Cc3ccc(O)cc3)NC(=O)[C@H](CCCCN)NC(=O)[C@H](CO)NC(=O)[C@H](Cc3ccc(O)cc3)NC(=O)[C@H](CC(=O)O)NC(=O)[C@H](CO)NC(=O)[C@@H](NC(=O)[C@H](Cc3ccccc3)NC(=O)[C@@H](NC(=O)CNC(=O)[C@H](CCC(N)=O)NC(=O)C(C)(C)NC(=O)[C@@H](N)Cc3c[nH]cn3)[C@@H](C)O)[C@@H](C)O)C(=O)N[C@@H](CCC(N)=O)C(=O)N[C@@H](C)C(=O)N[C@@H](C)C(=O)N2)[C@@H](C)CC)C(=O)N[C@@H](Cc2c[nH]c3ccccc23)C(=O)N[C@@H](CC(C)C)C(=O)N[C@@H](CC(C)C)C(=O)N[C@@H](CCC(N)=O)C(=O)N[C@H](C(N)=O)[C@@H](C)O)[C@@H](O)[C@H](O)[C@H]1O [EU-A1712] | 37 | 175 | 
CCCCCCCCCCO[C@@H]1O[C@H](C(=O)NCCCC[C@H](N)C(=O)NCCCC[C@H](NC(=O)[C@@H](NC(=O)[C@H](Cc2ccccc2)NC(=O)[C@H](CCC(=O)O)NC(=O)[C@@H]2CCCCNC(=O)CC[C@H](NC(=O)[C@H](CC(=O)O)NC(=O)[C@H](CC(C)C)NC(=O)[C@H](Cc3ccc(O)cc3)NC(=O)[C@H](CCCCN)NC(=O)[C@H](CO)NC(=O)[C@H](Cc3ccc(O)cc3)NC(=O)[C@H](CC(=O)O)NC(=O)[C@H](CO)NC(=O)[C@@H](NC(=O)[C@H](Cc3ccccc3)NC(=O)[C@@H](NC(=O)CNC(=O)[C@H](CCC(N)=O)NC(=O)C(C)(C)NC(=O)[C@@H](N)Cc3c[nH]cn3)[C@@H](C)O)[C@@H](C)O)C(=O)N[C@@H](CCC(N)=O)C(=O)N[C@@H](C)C(=O)N[C@@H](C)C(=O)N2)[C@@H](C)CC)C(=O)N[C@@H](Cc2c[nH]c3ccccc23)C(=O)N[C@@H](CC(C)C)C(=O)N[C@@H](CC(C)C)C(=O)N[C@@H](CCC(N)=O)C(=O)N[C@H](C(N)=O)[C@@H](C)O)[C@@H](O)[C@H](O)[C@H]1O [EU-A1710] | 26 |  | 65
CCCCCCCCCCCCO[C@@H]1O[C@H](CO[C@H]2O[C@H](C(=O)NCCCC[C@H](NC(=O)[C@H](CC(=O)O)NC(=O)[C@H](CO)NC(=O)[C@@H](NC(=O)[C@H](Cc3ccccc3)NC(=O)[C@@H](NC(=O)CNC(=O)[C@H](CCC(N)=O)NC(=O)C(C)(C)NC(=O)[C@@H](N)Cc3c[nH]cn3)[C@@H](C)O)[C@@H](C)O)C(=O)N[C@@H](CO)C(=O)N[C@@H](CCCCN)C(=O)N[C@@H](Cc3ccc(O)cc3)C(=O)N[C@@H](CC(C)C)C(=O)N[C@@H](CC(=O)O)C(=O)N[C@H]3CCC(=O)NCCCC[C@@H](C(=O)N[C@@H](CCC(=O)O)C(=O)N[C@@H](Cc4ccccc4)C(=O)N[C@H](C(=O)N[C@@H](CCC(=O)O)C(=O)N[C@@H](Cc4c[nH]c5ccccc45)C(=O)N[C@@H](CC(C)C)C(=O)N[C@@H](CC(C)C)C(=O)N[C@@H](CCC(N)=O)C(=O)N[C@H](C(=O)O)[C@@H](C)O)[C@@H](C)CC)NC(=O)[C@H](C)NC(=O)[C@H](C)NC(=O)[C@H](CCC(N)=O)NC3=O)[C@H](O)[C@H](O)[C@H]2O)[C@@H](O)[C@H](O)[C@H]1O [EU-A1599] (H-H[Aib]QGTFTSDK(Melibiouronoyl(1β-O-dodecyl))SKYLDEQAAKEFIEWLLQT-OH; lactam 16-20; N-terminus assumed) | 61 |  | 317

Other lines, results leading:

EC50 (human GLP-1 receptor) [pM] | EC50 (human glucagon receptor; [1]) [pM] | EC50 (human glucagon receptor) [pM] | Structure (SMILES)
8 |  | 355 | CCCCCCCCCCCCCCCCO[C@@H]1O[C@H](CO[C@H]2O[C@H](C(=O)NCCCC[C@H](NC(=O)[C@@H](NC(=O)[C@H](Cc3ccccc3)NC(=O)[C@H](CCC(=O)O)NC(=O)[C@@H]3CCCCNC(=O)CC[C@H](NC(=O)[C@H](CC(=O)O)NC(=O)[C@H](CC(C)C)NC(=O)[C@H](Cc4ccc(O)cc4)NC(=O)[C@H](CCCCN)NC(=O)[C@H](CO)NC(=O)[C@H](Cc4ccc(O)cc4)NC(=O)[C@H](CC(=O)O)NC(=O)[C@H](CO)NC(=O)[C@@H](NC(=O)[C@H](Cc4ccccc4)NC(=O)[C@@H](NC(=O)CNC(=O)[C@H](CCC(N)=O)NC(=O)C(C)(C)NC(=O)[C@@H](N)Cc4c[nH]cn4)[C@@H](C)O)[C@@H](C)O)C(=O)N[C@@H](CCC(N)=O)C(=O)N[C@@H](C)C(=O)N[C@@H](C)C(=O)N3)[C@@H](C)CC)C(=O)N[C@@H](Cc3c[nH]c4ccccc34)C(=O)N[C@@H](CC(C)C)C(=O)N[C@@H](CC(C)C)C(=O)N[C@@H](CCC(N)=O)C(=O)N[C@H](C(=O)O)[C@@H](C)O)[C@H](O)[C@H](O)[C@H]2O)[C@@H](O)[C@H](O)[C@H]1O [EU-A1578]
11 |  | 59 | CCCCCCCCCCCCCCO[C@@H]1O[C@H](CO[C@H]2O[C@H](C(=O)NCCCC[C@H](N)C(=O)NCCCC[C@H](NC(=O)[C@@H](NC(=O)[C@H](Cc3ccccc3)NC(=O)[C@H](CCC(=O)O)NC(=O)[C@@H]3CCCCNC(=O)CC[C@H](NC(=O)[C@H](CC(=O)O)NC(=O)[C@H](CC(C)C)NC(=O)[C@H](Cc4ccc(O)cc4)NC(=O)[C@H](CCCCN)NC(=O)[C@H](CO)NC(=O)[C@H](Cc4ccc(O)cc4)NC(=O)[C@H](CC(=O)O)NC(=O)[C@H](CO)NC(=O)[C@@H](NC(=O)[C@H](Cc4ccccc4)NC(=O)[C@@H](NC(=O)CNC(=O)[C@H](CCC(N)=O)NC(=O)C(C)(C)NC(=O)[C@@H](N)Cc4c[nH]cn4)[C@@H](C)O)[C@@H](C)O)C(=O)N[C@@H](CCC(N)=O)C(=O)N[C@@H](C)C(=O)N[C@@H](C)C(=O)N3)[C@@H](C)CC)C(=O)N[C@@H](Cc3c[nH]c4ccccc34)C(=O)N[C@@H](CC(C)C)C(=O)N[C@@H](CC(C)C)C(=O)N[C@@H](CCC(N)=O)C(=O)N[C@H](C(=O)O)[C@@H](C)O)[C@H](O)[C@H](O)[C@H]2O)[C@@H](O)[C@H](O)[C@H]1O [EU-A1612]
210 |  | 1260 | CCCCCCCCCCCCCCO[C@@H]1O[C@H](C(=O)NCCCC[C@H](NC(=O)[C@@H](NC(=O)[C@H](Cc2ccccc2)NC(=O)[C@H](CCC(=O)O)NC(=O)[C@@H]2CCCCNC(=O)CC[C@H](NC(=O)[C@H](CC(=O)O)NC(=O)[C@H](CC(C)C)NC(=O)[C@H](Cc3ccc(O)cc3)NC(=O)[C@H](CCCCN)NC(=O)[C@H](CO)NC(=O)[C@H](Cc3ccc(O)cc3)NC(=O)[C@H](CC(=O)O)NC(=O)[C@H](CO)NC(=O)[C@@H](NC(=O)[C@H](Cc3ccccc3)NC(=O)[C@@H](NC(=O)CNC(=O)[C@H](CCC(N)=O)NC(=O)C(C)(C)NC(=O)[C@@H](N)Cc3c[nH]cn3)[C@@H](C)O)[C@@H](C)O)C(=O)N[C@@H](CCC(N)=O)C(=O)N[C@@H](C)C(=O)N[C@@H](C)C(=O)N2)[C@@H](C)CC)C(=O)N[C@@H](Cc2c[nH]c3ccccc23)C(=O)N[C@@H](CC(C)C)C(=O)N[C@@H](CC(C)C)C(=O)N[C@@H](CCC(N)=O)C(=O)N[C@H](C(=O)O)[C@@H](C)O)[C@@H](O)[C@H](O)[C@H]1O [EU-A1682]
32 |  | 70 | CCCCCCCCCCCCO[C@@H]1O[C@H](CO[C@H]2O[C@H](C(=O)NCCCC[C@H](NC(=O)[C@@H](NC(=O)[C@H](Cc3ccccc3)NC(=O)[C@H](CCC(=O)O)NC(=O)[C@@H]3CCCCNC(=O)CC[C@H](NC(=O)[C@H](CC(=O)O)NC(=O)[C@H](CC(C)C)NC(=O)[C@H](Cc4ccc(O)cc4)NC(=O)[C@H](CCCCN)NC(=O)[C@H](CO)NC(=O)[C@H](Cc4ccc(O)cc4)NC(=O)[C@H](CC(=O)O)NC(=O)[C@H](CO)NC(=O)[C@@H](NC(=O)[C@H](Cc4ccccc4)NC(=O)[C@@H](NC(=O)CNC(=O)[C@H](CCC(N)=O)NC(=O)C(C)(C)NC(=O)[C@@H](N)Cc4c[nH]cn4)[C@@H](C)O)[C@@H](C)O)C(=O)N[C@@H](CCC(N)=O)C(=O)N[C@@H](C)C(=O)N[C@@H](C)C(=O)N3)[C@@H](C)CC)C(=O)N[C@@H](Cc3c[nH]c4ccccc34)C(=O)N[C@@H](CC(C)C)C(=O)N[C@@H](CC(C)C)C(=O)N[C@@H](CCC(N)=O)C(=O)N[C@H](C(=O)O)[C@@H](C)O)[C@H](O)[C@H](O)[C@H]2O)[C@@H](O)[C@H](O)[C@H]1O [EU-A1576]
493 |  | 1230 | CCCCCCCCCCCCCCCCO[C@@H]1O[C@H](CO[C@H]2O[C@H](C(=O)NCCCC[C@H](NC(=O)[C@H](CC(=O)O)NC(=O)[C@H](CO)NC(=O)[C@@H](NC(=O)[C@H](Cc3ccccc3)NC(=O)[C@@H](NC(=O)CNC(=O)[C@H](CCC(N)=O)NC(=O)C(C)(C)NC(=O)[C@@H](N)Cc3c[nH]cn3)[C@@H](C)O)[C@@H](C)O)C(=O)N[C@@H](CO)C(=O)N[C@@H](CCCCN)C(=O)N[C@@H](Cc3ccc(O)cc3)C(=O)N[C@@H](CC(C)C)C(=O)N[C@@H](CC(=O)O)C(=O)N[C@H]3CCC(=O)NCCCC[C@@H](C(=O)N[C@@H](CCC(=O)O)C(=O)N[C@@H](Cc4ccccc4)C(=O)N[C@H](C(=O)N[C@@H](CCC(N)=O)C(=O)N[C@@H](Cc4c[nH]c5ccccc45)C(=O)N[C@@H](CC(C)C)C(=O)N[C@@H](CC(C)C)C(=O)N[C@@H](CCC(N)=O)C(=O)N[C@H](C(N)=O)[C@@H](C)O)[C@@H](C)CC)NC(=O)[C@H](C)NC(=O)[C@H](C)NC(=O)[C@H](CCC(N)=O)NC3=O)[C@H](O)[C@H](O)[C@H]2O)[C@@H](O)[C@H](O)[C@H]1O [EU-A1596] (H-H[Aib]QGTFTSDK(X1)SKYLDEQAAKEFIQWLLQT-NH2; lactam 16-20; N-terminus assumed)
